In the supplement of paper PMC8671470:

What was measured:
Conditions in all cases: 72 h
THP-1 [1] = system: THP-1
Method in brief: (§1)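 Fifteen myeloid leukaemia lines in RPMI 1640 were treated for 72 h at 37 °C and 5% CO2 with five tenfold doses from 1 to 10,000 nM, in duplicate. ATP luminescence was normalised to vehicle and to a positive control at 10 µM, then fitted with a four-parameter log-logistic model. The IC50 came from these fits.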

KG-1 [2] = system: KG-1
Method in brief: as §1

KU-812 [3] = system: KU-812
Method in brief: as §1

MOLM-13 [4] = system: MOLM-13
Method in brief: as §1

BV-173 [5] = system: BV-173
Method in brief: as §1

HL-60 [6] = system: HL-60
Method in brief: as §1

Mono-Mac-6 [7] = system: Mono-Mac-6
Method in brief: as §1

LAMA-84 [8] = system: LAMA-84
Method in brief: as §1

ML-2 [9] = system: ML-2
Method in brief: as §1

SHI-1 [10] = system: SHI-1
Method in brief: as §1

K-562 [11] = system: K-562
Method in brief: as §1

NOMO-1 [12] = system: NOMO-1
Method in brief: as §1

MV4-11 [13] = system: MV4-11
Method in brief: as §1

KCL-22 [14] = system: KCL-22
Method in brief: as §1

HEL [15] = system: HEL
Method in brief: as §1

THP-1 [16] = assay: cell viability (% survival relative to DMSO control, bortezomib = 0%); higher = less cytotoxic
Method in brief: (§2)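 In 384-well plates pre-printed with compounds at 1, 10, 100, 1000 or 10000 nM, duplicate wells received cells from 10 AML and 5 CML lines at densities within the linear growth range. The plates stayed at 37 °C with 5% CO2 for 72 h before CellTiter-Glo luminescence was recorded. Each entry is averaged percent survival. Scaling placed vehicle at 100% and a 10 µM positive control at 0%.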

KG-1 [17] = assay: as above
Method in brief: as §2

KU-812 [18] = assay: as above
Method in brief: as §2

MOLM-13 [19] = assay: as above
Method in brief: as §2

BV-173 [20] = assay: as above
Method in brief: as §2

HL-60 [21] = assay: as above
Method in brief: as §2

Mono-Mac-6 [22] = assay: as above
Method in brief: as §2

LAMA-84 [23] = assay: as above
Method in brief: as §2

ML-2 [24] = assay: as above
Method in brief: as §2

SHI-1 [25] = assay: as above
Method in brief: as §2

K-562 [26] = assay: as above
Method in brief: as §2

NOMO-1 [27] = assay: as above
Method in brief: as §2

MV4-11 [28] = assay: as above
Method in brief: as §2

KCL-22 [29] = assay: as above
Method in brief: as §2

HEL [30] = assay: as above
Method in brief: as §2

CCCCCCCC/C=C\CCCCCCCC(=O)Nc1ccccc1 [Octadec-9-Enoic Acid Phenylamide]
Conditions	IC50 (cell viability) [µM]
BV-173 [5]	> 10
HEL [15]	> 10
HL-60 [6]	> 10
K-562 [11]	> 10
KCL-22 [14]	> 10
KG-1 [2]	> 10
KU-812 [3]	> 10
LAMA-84 [8]	> 10
ML-2 [9]	> 10
MOLM-13 [4]	> 10
MV4-11 [13]	> 10
Mono-Mac-6 [7]	> 10
NOMO-1 [12]	> 10
SHI-1 [10]	> 10
THP-1 [1]	> 10

cell viability [%]
Conditions	1 nM	10 nM	100 nM	1000 nM	10000 nM
BV-173 [20]	98.4	94.8	99.7	100	95.7
HEL [30]	104	92.9	92.3	106	104
HL-60 [21]	96.1	105	113	100	124
K-562 [26]	110	92.7	95.8	104	93.4
KCL-22 [29]	103	95.7	99.5	103	96.6
KG-1 [17]	107	96.9	99.9	99.2	97.4
KU-812 [18]	100	96.3	95.6	96.8	108
LAMA-84 [23]	107	97.8	101	103	99.4
ML-2 [24]	113	105	99.9	103	108
MOLM-13 [19]	106	90.3	91.1	98.3	108
MV4-11 [28]	118	100	108	110	82.6
Mono-Mac-6 [22]	97.1	103	108	99.5	101
NOMO-1 [27]	97	97.1	97.1	99.2	99.6
SHI-1 [25]	109	94.4	103	100	98
THP-1 [16]	98.7	97.9	103	93.5	107

CC[C@H](C)[C@H](N)C(=O)N1CCSC1 [P32/98]
Conditions	IC50 (cell viability) [µM]
BV-173 [5]	> 10
HEL [15]	> 10
HL-60 [6]	> 10
K-562 [11]	> 10
KCL-22 [14]	> 10
KG-1 [2]	> 10
KU-812 [3]	> 10
LAMA-84 [8]	> 10
ML-2 [9]	> 10
MOLM-13 [4]	> 10
MV4-11 [13]	> 10
Mono-Mac-6 [7]	> 10
NOMO-1 [12]	> 10
SHI-1 [10]	> 10
THP-1 [1]	> 10

cell viability [%]
Conditions	1 nM	10 nM	100 nM	1000 nM	10000 nM
BV-173 [20]	96.2	95.3	96.7	115	84
HEL [30]	105	98.7	109	107	105
HL-60 [21]	88.1	103	108	98.6	76.7
K-562 [26]	101	98.6	96.6	101	100
KCL-22 [29]	96.8	97.3	107	98.2	100
KG-1 [17]	97.9	110	108	112	137
KU-812 [18]	97.7	92.3	92.6	103	97.9
LAMA-84 [23]	96.6	102	102	106	103
ML-2 [24]	102	102	102	103	91.2
MOLM-13 [19]	84.3	87.8	99.7	103	97.4
MV4-11 [28]	98.7	110	106	96.9	108
Mono-Mac-6 [22]	93.6	99	109	103	101
NOMO-1 [27]	102	102	99.6	102	92.9
SHI-1 [25]	111	99.9	103	97.1	88.5
THP-1 [16]	96.8	105	112	104	106

CC(=O)Nc1nc(C)c(-c2ccc(Cl)c(S(=O)(=O)NCCO)c2)s1 [PIK93]
Conditions	IC50 (cell viability) [µM]
BV-173 [5]	0.792
HEL [15]	2.19
HL-60 [6]	0.935
K-562 [11]	2.66
KCL-22 [14]	1.12
KG-1 [2]	2.56
KU-812 [3]	2.69
LAMA-84 [8]	8.06
ML-2 [9]	0.607
MOLM-13 [4]	0.959
MV4-11 [13]	1.09
Mono-Mac-6 [7]	1.02
NOMO-1 [12]	2.05
SHI-1 [10]	1.09
THP-1 [1]	1.51

cell viability [%]
Conditions	1 nM	10 nM	100 nM	1000 nM	10000 nM
BV-173 [20]	119	103	95.8	45.6	9.29
HEL [30]	111	94	96.8	74.5	33.1
HL-60 [21]	119	120	84.2	50.7	3.89
K-562 [26]	134	98.9	110	82.3	31.9
KCL-22 [29]	132	99.4	100	64.2	20.7
KG-1 [17]	93.9	106	100	80.8	32.6
KU-812 [18]	92.6	93.9	94.7	80.1	29.2
LAMA-84 [23]	113	95.3	102	90.6	55.8
ML-2 [24]	106	98.8	92.6	38.3	8.96
MOLM-13 [19]	129	111	89.9	50.2	0.72
MV4-11 [28]	96.3	95.7	84.5	51.1	0.217
Mono-Mac-6 [22]	95.8	90.9	85.5	52.4	17.6
NOMO-1 [27]	101	96.7	92.7	69.1	22.9
SHI-1 [25]	104	94.6	97.3	57.6	13.4
THP-1 [16]	105	102	112	74.7	24.5

OC[C@H]1O[C@@H](n2cnc3c2N=CNC[C@H]3O)C[C@@H]1O [Pentostatin]
Conditions	IC50 (cell viability) [µM]
BV-173 [5]	> 10
HEL [15]	> 10
HL-60 [6]	> 10
K-562 [11]	> 10
KCL-22 [14]	> 10
KG-1 [2]	> 10
KU-812 [3]	> 10
LAMA-84 [8]	> 10
ML-2 [9]	> 10
MOLM-13 [4]	> 10
MV4-11 [13]	> 10
Mono-Mac-6 [7]	> 10
NOMO-1 [12]	> 10
SHI-1 [10]	> 10
THP-1 [1]	> 10

cell viability [%]
Conditions	1 nM	10 nM	100 nM	1000 nM	10000 nM
BV-173 [20]	102	97.4	117	94.5	101
HEL [30]	105	89.4	102	103	142
HL-60 [21]	99.5	99.7	98.2	100	118
K-562 [26]	95.3	106	111	99.2	107
KCL-22 [29]	99.1	89.9	101	94.3	105
KG-1 [17]	101	104	97.9	108	97.8
KU-812 [18]	96.4	99.5	112	95.1	115
LAMA-84 [23]	102	99.6	111	101	108
ML-2 [24]	99.2	86.6	99.1	108	123
MOLM-13 [19]	86.9	99.7	101	110	114
MV4-11 [28]	95.8	104	107	105	103
Mono-Mac-6 [22]	104	94.2	105	91.9	99.3
NOMO-1 [27]	105	94.3	113	98.8	106
SHI-1 [25]	93.9	100	94.5	100	111
THP-1 [16]	102	93.5	111	98.3	103

CC(C)CC(=O)N[C@H](C(=O)N[C@H](C(=O)N[C@@H](CC(C)C)[C@@H](O)CC(=O)N[C@@H](C)C(=O)N[C@@H](CC(C)C)[C@@H](O)CC(=O)O)C(C)C)C(C)C [Pepstatin A]
Conditions	IC50 (cell viability) [µM]
BV-173 [5]	> 10
HEL [15]	> 10
HL-60 [6]	> 10
K-562 [11]	> 10
KCL-22 [14]	> 10
KG-1 [2]	> 10
KU-812 [3]	> 10
LAMA-84 [8]	> 10
ML-2 [9]	> 10
MOLM-13 [4]	> 10
MV4-11 [13]	> 10
Mono-Mac-6 [7]	> 10
NOMO-1 [12]	> 10
SHI-1 [10]	> 10
THP-1 [1]	> 10

cell viability [%]
Conditions	1 nM	10 nM	100 nM	1000 nM	10000 nM
BV-173 [20]	94.2	86.5	106	101	88.4
HEL [30]	98.8	88.3	95.8	105	95.3
HL-60 [21]	99.7	73.7	111	144	84.6
K-562 [26]	95.1	85.5	96.9	101	87.9
KCL-22 [29]	97.4	74.5	101	101	98.7
KG-1 [17]	99.1	77.5	96.8	90.7	93.9
KU-812 [18]	102	101	96.8	111	95.9
LAMA-84 [23]	92.2	87.2	103	96.2	103
ML-2 [24]	96.5	84.5	105	106	91.8
MOLM-13 [19]	109	93.8	109	126	86.5
MV4-11 [28]	87.7	77.9	90	92.3	81.8
Mono-Mac-6 [22]	101	83.7	104	100	101
NOMO-1 [27]	98.3	86.8	106	104	102
SHI-1 [25]	93	87.5	111	105	105
THP-1 [16]	96.3	87.1	103	96.1	97
